Assay results: ChEMBL document CHEMBL3046800, “Tricyclic cyanoguanidines: synthesis, site of action and insecticidal activity of a novel class of reversible acetylcholinesterase inhibitors” (2002)
The source made the active and inactive calls. No cut-off for these calls is given here.

Legend:
[1] = tested on: Peregrinus maidis; assay: Insecticidal activity against Peregrinus maidis (corn hopper) infested compound-pretreated corn seed measured 6 days post-infestation; format: functional
[2] = tested on: Nephotettix cincticeps; assay: Insecticidal activity against Nephotettix cincticeps (green rice leafhopper) infested in compound-pretreated rice seedling measured 6 days post-infestation; format: functional
[3] = tested on: Nilaparvata lugens; assay: Insecticidal activity against Nilaparvata lugens (brown planthopper) infested in compound-pretreated rice seedling measured 6 days post-infestation; format: functional
[4] = biological target: Acetylcholinesterase (Leptinotarsa decemlineata) (UniProt Q27677); assay: Irreversible inhibition of Diabrotica undecimpunctata (Southern corn rootworm) acetylcholinesterase using acetylcholine iodine as substrate assessed as activity remaining at 1 uM incubated for 30 min prior to substrate addition by size exclusion chromatrography method
Chain of Acetylcholinesterase (Leptinotarsa decemlineata) (Q27677 whole entry): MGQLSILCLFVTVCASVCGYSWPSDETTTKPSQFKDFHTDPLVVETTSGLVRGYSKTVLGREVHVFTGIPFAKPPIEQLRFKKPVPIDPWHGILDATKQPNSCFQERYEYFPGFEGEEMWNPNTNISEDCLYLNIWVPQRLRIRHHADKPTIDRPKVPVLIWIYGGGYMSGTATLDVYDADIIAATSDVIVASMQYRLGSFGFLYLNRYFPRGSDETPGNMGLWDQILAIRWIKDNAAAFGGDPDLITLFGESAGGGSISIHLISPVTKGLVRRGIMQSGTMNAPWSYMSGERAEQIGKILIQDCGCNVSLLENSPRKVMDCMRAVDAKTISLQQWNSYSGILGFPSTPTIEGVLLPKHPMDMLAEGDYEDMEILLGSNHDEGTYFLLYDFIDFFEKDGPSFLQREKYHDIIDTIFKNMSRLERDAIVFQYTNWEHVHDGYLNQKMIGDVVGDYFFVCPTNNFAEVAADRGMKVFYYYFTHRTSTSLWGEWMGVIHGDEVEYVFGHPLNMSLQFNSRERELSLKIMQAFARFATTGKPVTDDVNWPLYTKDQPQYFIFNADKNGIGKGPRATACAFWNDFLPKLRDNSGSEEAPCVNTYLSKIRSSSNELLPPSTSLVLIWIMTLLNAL

[5] = biological target: Acetylcholinesterase (Leptinotarsa decemlineata) (UniProt Q27677); assay: Irreversible inhibition of Diabrotica undecimpunctata (Southern corn rootworm) acetylcholinesterase using acetylcholine iodine as substrate at 300 nM measured after 120 min by DTNB-based colorimetric analysis
[6] = biological target: Acetylcholinesterase (Leptinotarsa decemlineata) (UniProt Q27677); assay: Inhibition of Diabrotica undecimpunctata (Southern corn rootworm) acetylcholinesterase using acetylcholine iodine as substrate at 300 nM measured after 30 min by DTNB-based colorimetric analysis
[7] = biological target: Acetylcholinesterase (Leptinotarsa decemlineata) (UniProt Q27677); assay: Reversible inhibition of Diabrotica undecimpunctata (Southern corn rootworm) acetylcholinesterase using acetylcholine iodine as substrate at 10 uM incubated for 30 min prior to substrate addition by size exclusion chromatrography method
[8] = biological target: Ace-orthologous acetylcholinesterase (Nephotettix cincticeps) (UniProt Q9NJH6); assay: Reversible inhibition of Nephotettix cincticeps (green rice leafhopper) acetylcholinesterase using acetylcholine iodine as substrate at 2 uM measured up to 120 min by DTNB-based colorimetric analysis
Chain of Ace-orthologous acetylcholinesterase (Nephotettix cincticeps) (Q9NJH6 20-677 limits assumed): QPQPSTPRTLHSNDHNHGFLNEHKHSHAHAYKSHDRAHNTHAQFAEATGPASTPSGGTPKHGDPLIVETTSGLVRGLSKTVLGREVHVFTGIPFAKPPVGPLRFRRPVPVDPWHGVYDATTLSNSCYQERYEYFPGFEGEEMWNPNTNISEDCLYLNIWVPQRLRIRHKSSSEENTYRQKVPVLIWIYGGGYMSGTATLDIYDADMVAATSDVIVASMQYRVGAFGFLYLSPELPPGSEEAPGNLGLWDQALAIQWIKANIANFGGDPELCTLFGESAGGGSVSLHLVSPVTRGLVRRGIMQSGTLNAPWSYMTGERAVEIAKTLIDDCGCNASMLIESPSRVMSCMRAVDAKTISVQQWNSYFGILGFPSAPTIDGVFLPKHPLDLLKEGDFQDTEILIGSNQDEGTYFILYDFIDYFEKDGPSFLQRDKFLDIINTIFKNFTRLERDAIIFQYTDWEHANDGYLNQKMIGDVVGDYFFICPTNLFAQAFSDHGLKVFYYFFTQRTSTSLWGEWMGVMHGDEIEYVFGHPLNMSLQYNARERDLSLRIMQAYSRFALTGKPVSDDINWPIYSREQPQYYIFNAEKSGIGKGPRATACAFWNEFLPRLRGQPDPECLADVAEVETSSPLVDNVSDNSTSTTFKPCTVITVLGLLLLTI

[9] = biological target: Acetylcholinesterase (Leptinotarsa decemlineata) (UniProt Q27677); assay: Reversible inhibition of Diabrotica undecimpunctata (Southern corn rootworm) acetylcholinesterase using acetylcholine iodine as substrate at 2 uM measured up to 120 min by DTNB-based colorimetric analysis

| SMILES | LC80 [1] [ppm] | LC80 [2] [ppm] | LC80 [3] [ppm] | also measured |
| --- | --- | --- | --- | --- |
| CC12CC(c3ccccc3O1)N(S(C)(=O)=O)/C(=N/C#N)N2 (centres undefined) | <50 | >100 | >100 |  |
| CC12CC(N/C(=N/C#N)N1)c1cc(Cl)cc(Cl)c1O2 (centres undefined) | >250 | >100 | >100 |  |
| CN1/C(=N/C#N)NC2(C)CC1c1ccccc1O2 (centres undefined) | >250 | <100 | <10 |  |
| C[C@@H]1[C@H]2Cc3ccccc3[C@@H]1N/C(=N/C#N)N2 (relative stereo) | <250 | <0.1 | <100 |  |
| Cc1cccc2c1OC1(C)CC2N/C(=N/C#N)N1 (centres undefined) | >250 | >100 | >100 |  |
| CC12CC(N/C(=N/C#N)N1)c1cc(N)ccc1O2 (centres undefined) | >250 | <10 | >100 |  |
| COC(=O)N1/C(=N/C#N)NC2(C)CC1c1ccc(F)cc1O2 (centres undefined) | <250 | <10 |  |  |
| CCOP(=O)(OCC)Oc1ccc([N+](=O)[O-])cc1 [PARAOXON] |  | >100 | <10 | Activity [4]: < 20%; inhibition [5]: 100%; inhibition [6]: 50% |
| CN1/C(=N/C#N)N(C)C2(C)CC1c1ccccc1O2 (centres undefined) | >250 | >100 | <10 |  |
| CC12CC(c3ccccc3O1)N(Cc1ccccc1)/C(=N/C#N)N2 (centres undefined) | >250 | <100 | >100 |  |
| CC12CC(N/C(=N/C#N)N1)c1cc(Br)cc(Br)c1O2 (centres undefined) | <10 | >100 | >100 |  |
| CC12CC(N/C(=N/C#N)N1)c1ccccc1O2 (centres undefined) | >250 | >100 | <10 | inhibition [7]: Active; inhibition [8]: inactive; inhibition [9]: 50% |
| C[C@H]1[C@H]2N/C(=N/C#N)N[C@]1(C)Cc1ccccc12 (relative stereo) | <2.5 | <1 |  |  |
| CC(=O)N1/C(=N/C#N)NC2(C)CC1c1ccccc1O2 (centres undefined) | <250 | <10 | <10 |  |
| CC12CC(c3ccccc3O1)N(C(=O)C(F)(F)F)/C(=N/C#N)N2 (centres undefined) | <250 | >100 | >100 |  |
| Cc1ccc2c(c1)C1CC(C)(N/C(=N\C#N)N1)O2 (centres undefined) | >250 | <100 | >100 |  |
| C[C@@H]1[C@H]2N/C(=N/C#N)N[C@]1(C)Cc1ccccc12 (relative stereo) | <10 |  | <1 |  |
| C#CCN1/C(=N/C#N)NC2(C)CC1c1ccccc1O2 (centres undefined) | >250 | <10 | <10 |  |
| CC12CC(N/C(=N/C#N)N1)c1c(Cl)cc(Cl)cc1O2 (centres undefined) | <250 | <10 | >100 |  |
| CC12CC(N/C(=N/C#N)N1)c1ccc(Cl)cc1O2 (centres undefined) | <50 | >100 | <100 |  |
| CC(=O)N1/C(=N/C#N)NC2(C)CC1c1ccc(F)cc1O2 (centres undefined) | >250 | >100 | >100 |  |
| CC(C)C(=O)N1/C(=N/C#N)NC2(C)CC1c1ccccc1O2 (centres undefined) | >250 | >100 | <10 |  |
| CC12CC(N/C(=N/C#N)N1)c1cccc(F)c1O2 (centres undefined) | >250 | >100 | >100 |  |
| CC(=O)N1/C(=N/C#N)NC2Cc3ccccc3C1C2 (centres undefined) | >250 | <10 |  |  |
| CC12CC(c3ccccc3O1)N(Cc1ccccn1)/C(=N/C#N)N2 (centres undefined) | <50 | >100 | <100 |  |
| COc1ccc2c(c1OC)OC1(C)CC2N/C(=N/C#N)N1 (centres undefined) | <250 | >100 | >100 |  |
| COC(=O)N1/C(=N/C#N)NC2(C)CC1c1ccccc1O2 (centres undefined) | >250 | <10 | <10 |  |

| SMILES | LC80 [1] [ppm] | LC80 [2] [ppm] | LC80 [3] [ppm] | also measured |
| --- | --- | --- | --- | --- |
| CC12CC(N/C(=N/C#N)N1)c1ccc(F)cc1O2 (centres undefined) | <250 | >100 | <10 |  |
| C[C@H]1[C@H]2Cc3ccccc3[C@@H]1N/C(=N/C#N)N2 (relative stereo) | <250 |  | <10 |  |
| COc1cccc2c1C1CC(C)(N/C(=N\C#N)N1)O2 (centres undefined) | <50 | >100 | >100 |  |
| N#C/N=C1/NC2CC(c3ccccc3)(N1)Oc1ccccc12 (centres undefined) | <50 | <10 | >100 |  |
| CC12CC(N/C(=N/C#N)N1)c1cc(Cl)ccc1O2 (centres undefined) | >250 | >100 | >100 |  |
| CC1c2ccccc2C2CC1N/C(=N\C#N)N2 (centres undefined) | <2.5 | <10 |  |  |
| C[C@H]1[C@H]2N/C(=N/C#N)N[C@]1(C)Oc1ccccc12 (relative stereo) | >250 | <1 | <100 |  |
| CCC12CC(N/C(=N/C#N)N1)c1ccccc1O2 (centres undefined) | >250 | >100 | <10 |  |
| CCC(=O)N1/C(=N/C#N)NC2(C)CC1c1ccccc1O2 (centres undefined) | <250 | <100 | <10 |  |
| CCC1C2N/C(=N/C#N)NC1(C)Oc1ccccc12 (centres undefined) | >250 | <10 | >100 |  |
| CC12CC(N/C(=N/C#N)N1)c1cc(OC(F)(F)F)ccc1O2 (centres undefined) | >250 | >100 | >100 |  |
| CC1C2N/C(=N\C#N)NC1c1ccccc1O2 (mixture of isomers) | >250 | >100 | <100 |  |
| CC12CC(c3ccccc3O1)N(C[Si](C)(C)C)/C(=N/C#N)N2 (centres undefined) | >250 | >100 | <100 |  |
| CC(=O)N1/C(=N\C#N)NC2CC1Cc1ccccc12 (centres undefined) | <10 |  | >100 |  |
| N#C/N=C1\NC2CC(N1)c1ccccc1O2 (centres undefined) | <50 | >100 | <100 |  |
| N#C/N=C1\NC2Cc3ccccc3C(C2)N1 (centres undefined) | <2.5 | <10 | <100 |  |
| CCN1/C(=N/C#N)NC2(C)CC1c1ccccc1O2 (centres undefined) | >250 | >100 | <10 |  |
| COC(=O)CN1/C(=N/C#N)NC2(C)CC1c1ccccc1O2 (centres undefined) | <50 | <100 | <100 |  |
| CCC1C2N/C(=N\C#N)NC1c1ccccc1O2 (mixture of isomers) | <250 |  | >100 |  |
| C=CCN1/C(=N/C#N)NC2(C)CC1c1ccccc1O2 (centres undefined) | >250 | >100 | <100 |  |
| CN1/C(=N/C#N)NC2(C)CC1c1ccc(F)cc1O2 (centres undefined) | <10 |  |  |  |
| C[C@@H]1[C@H]2N/C(=N/C#N)N[C@]1(C)Oc1ccccc12 (relative stereo) | <50 | >100 | <1 |  |
| CCCC(=O)N1/C(=N/C#N)NC2(C)CC1c1ccccc1O2 (centres undefined) | >250 | <100 | <10 |  |
| CC12CC(N/C(=N/C#N)N1)c1cc(C(C)(C)C)cc(C(C)(C)C)c1O2 (centres undefined) | >250 | >100 | >100 |  |
| CC12CC(N/C(=N/C#N)N1)c1cc([N+](=O)[O-])ccc1O2 (centres undefined) | <250 | <10 | >100 |  |
| CCC12N/C(=N\C#N)NC(c3ccccc3O1)C2C (mixture of isomers) | >250 | >100 | >100 |  |
